Assay results reported in patent publication US11691981B2, “Heterocyclic compounds, preparation methods therefor, and methods of uses thereof” (INVENTISBIO CO., LTD., priority 2019, dated 2023).

What was measured:
[1] = molecular target: TGFβR2 (Homo sapiens (Human), UniProt P37173); assay: TGFβR2 kinase inhibition assay (ADP-Glo); type: biochemical; conditions: 10 uM ATP, 120 min room temperature
Experimental: The TGFβR2 enzyme reaction was carried out as follows: 50 nL of compound in DMSO (or DMSO controls) were stamped into 384 white, low-volume plates. 2.5 μL of 2× enzyme solution (final enzyme concentration was 3 ng/uL in 40 mMTris, 7.5; 20 mM MgCl2; 0.1 mg/mL BSA; 1 mM DTT) was dispensed into assay plate. The plate was then sealed and spun at 1000 rpm for 30 s and incubated at room temperature for 10 min. Followed by addition of 2.5 μL of 2× substrate solution that contains both ATP (to make a final concentration of 10 uM) and TGFβR2 substrate (final concentration of 0.2 ug/uL). The plate was then sealed and spun at 1000 rpm for 30 s and the reaction was then incubated at room temperature for 120 min. After that 5 μL ADP-Glo™ Reagent was added into the assay wells to stop the reaction and deplete unconsumed ATP for 40 min at room temperature; then, 10 μL of Detection Reagent was added into the assay wells, followed by 40 min incubation to develop luminescence. The luminescence signal was then collected on Envision 2104 plate reader.

[2] = molecular target: TGFβR1 (Homo sapiens (Human), UniProt P36897); assay: TGFβR1 kinase inhibition assay (ADP-Glo Kinase Assay); type: biochemical; conditions: 40 nM TGFβR1 in 2x enzyme mix, 5.4 μM ATP in 2x substrate mix, 120 min RT
Chain of TGFβR1 (P36897 34-503): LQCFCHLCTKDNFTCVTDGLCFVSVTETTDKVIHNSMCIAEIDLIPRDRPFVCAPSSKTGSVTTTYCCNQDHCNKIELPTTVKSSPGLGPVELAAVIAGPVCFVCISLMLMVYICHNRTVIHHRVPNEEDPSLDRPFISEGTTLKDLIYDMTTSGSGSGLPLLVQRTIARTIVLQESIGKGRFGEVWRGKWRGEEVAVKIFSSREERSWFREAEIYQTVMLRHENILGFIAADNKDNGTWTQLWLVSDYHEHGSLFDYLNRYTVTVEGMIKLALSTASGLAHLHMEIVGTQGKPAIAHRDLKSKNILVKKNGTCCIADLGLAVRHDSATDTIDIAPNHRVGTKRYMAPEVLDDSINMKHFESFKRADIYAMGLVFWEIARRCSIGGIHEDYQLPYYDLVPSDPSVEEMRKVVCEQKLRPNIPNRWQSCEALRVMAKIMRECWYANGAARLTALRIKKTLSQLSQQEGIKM
Experimental: TGFβR1 kinase assay was performed according to the instruction manual of the ADP-Glo™ Kinase Assay kit provided by Promega. Prepare 1× Kinase buffer (50 mM Tris pH7.5, 0.1% BSA, 10 mM MgCl2, 1 mM DTT). Before activation reaction was started, Compounds were dissolved in DMSO and make 100× solution with 3-fold serial dilution for a total of 10 concentrations. Transfer 50 nL compounds to 384-well plate according to plate map using the automated liquid handler. […] Add 5 μL ADP-Glo Reagent to terminate the kinase reaction and deplete the remaining ATP, incubate at RT for 60 minutes. Add 10 μL Kinase Detection Reagent to convert ADP to ATP and allow the newly synthesized ATP to be measured using a luciferin reaction, incubate at RT for 30 minutes. Collect luminescence data with Envision.

Chain of TGFβR2 (P37173 23-567): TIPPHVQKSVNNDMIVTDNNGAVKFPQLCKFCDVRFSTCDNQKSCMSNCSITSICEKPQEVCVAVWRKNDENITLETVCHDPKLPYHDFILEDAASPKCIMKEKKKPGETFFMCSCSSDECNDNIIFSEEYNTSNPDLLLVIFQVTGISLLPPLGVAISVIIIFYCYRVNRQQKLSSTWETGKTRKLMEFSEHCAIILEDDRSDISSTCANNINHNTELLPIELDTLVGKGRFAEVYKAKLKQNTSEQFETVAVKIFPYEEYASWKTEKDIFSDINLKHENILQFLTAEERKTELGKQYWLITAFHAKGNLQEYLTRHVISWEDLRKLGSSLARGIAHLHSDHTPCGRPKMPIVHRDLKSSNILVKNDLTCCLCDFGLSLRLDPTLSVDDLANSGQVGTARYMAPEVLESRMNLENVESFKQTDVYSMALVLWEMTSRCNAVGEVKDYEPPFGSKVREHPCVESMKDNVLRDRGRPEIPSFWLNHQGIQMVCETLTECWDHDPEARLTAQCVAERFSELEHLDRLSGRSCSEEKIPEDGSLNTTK

CC(C)(O)c1cc(Nc2cc(Oc3cc(C(F)(F)F)nn3C3CCCNC3)ccn2)ccn1 (centres unmarked) [Compound 33]
IC50 [1]: > 100000 nM
IC50 [2]: 49 nM

CC(C)(O)c1cc(Nc2cc(Oc3cc(C(F)(F)F)nn3-c3c(F)cccc3F)ccn2)ccn1 [Compound 45]
IC50 [1]: 21000 nM
IC50 [2]: 13 nM

CC(C)(O)c1cc(Nc2cc(Oc3sc(C4CC4)nc3C3CCOCC3)ccn2)ccn1 [Compound 72]
IC50 [2]: 111 nM

N#Cc1cccc(Nc2cc(Oc3cc(C(F)(F)F)nn3C3CCOCC3)ccn2)c1 [Compound 9]
IC50 [1]: > 100000 nM
IC50 [2]: 163 nM

Cc1nc(C(F)(F)F)ccc1Oc1ccnc(Nc2ccnc(C(C)(C)O)c2)c1 [Compound 65]
IC50 [2]: 14 nM

CC(C)(O)c1ccc(Nc2cc(Oc3cc(C(F)(F)F)nn3-c3c(F)cccc3F)ccn2)cn1 [Compound 53]
IC50 [1]: 56000 nM
IC50 [2]: 18 nM

CC(C)(O)c1cc(Nc2cc(Oc3cc(C(F)(F)F)nn3-c3ccccc3)ccn2)ccn1 [Compound 17]
IC50 [1]: 1000 nM
IC50 [2]: 12 nM

CC(C)(O)c1cc(Nc2cc(Oc3cc(C4CC4)nn3C3CC3)ccn2)ccn1 [Compound 5]
IC50 [1]: > 100000 nM
IC50 [2]: 43 nM

CC(C)(O)c1cc(Nc2cc(Oc3cc(C(F)(F)F)nn3C3CC3)ccn2)ccn1 [Compound 7]
IC50 [1]: > 100000 nM
IC50 [2]: 557 nM

CC1(C)OC(=N)c2ccc(Nc3cc(Oc4cn(C5CC5)nc4C4CCOCC4)ccn3)cc21 [Compound 78]
IC50 [1]: > 100000 nM
IC50 [2]: 22 nM

CC1(C)OC(=N)c2ccc(Nc3cc(Oc4cc(C5CC5)nn4C4CCOCC4)ccn3)cc21 [Compound 46]
IC50 [2]: 66 nM

CC(C)(O)c1cc(Nc2cc(Oc3cc(C(F)(F)F)nn3-c3ccc(C#N)cc3)ccn2)ccn1 [Compound 44]
IC50 [2]: 141 nM

CC(C)(O)c1cc(Nc2cc(Oc3cc(C(F)(F)F)nn3C3CCNC3)ccn2)ccn1 (centres unmarked) [Compound 32]
IC50 [2]: 868 nM

CC(C)c1nc(C2CCOCC2)c(Oc2ccnc(Nc3ccnc(C(C)(C)O)c3)c2)s1 [Compound 76]
IC50 [2]: 90 nM

Cc1ccc(Oc2ccnc(Nc3ccnc(C(C)(C)O)c3)c2)c(CC(C)C)n1 [Compound 66]
IC50 [2]: 4 nM

N#Cc1ccc(Nc2cc(Oc3cc(C(F)(F)F)nn3C3CCOCC3)ccn2)cc1 [Compound 10]
IC50 [1]: > 100000 nM
IC50 [2]: 131 nM

C[C@@H]1C[C@H](n2nc(C3CC3)cc2Oc2ccnc(Nc3ccnc(C(C)(C)O)c3)c2)C[C@H](C)O1 [Compound 19]
IC50 [2]: 7710 nM

CC(C)(O)c1cc(Nc2cc(Oc3cc(C(F)(F)F)nn3-c3ccncc3)ccn2)ccn1 [Compound 48]
IC50 [2]: 132 nM

Cc1ccc(Oc2ccnc(Nc3ccc(S(N)(=O)=O)cc3)c2)c(C2CCOCC2)n1 [Compound 59]
IC50 [1]: 10000 nM
IC50 [2]: 32 nM

CC(C)(O)c1cc(Nc2cc(Oc3cn(C4CCC4)nc3C3CCOCC3)ccn2)ccn1 [Compound 67]
IC50 [1]: > 100000 nM
IC50 [2]: 51 nM

CCn1nc(C(F)(F)F)cc1Oc1ccnc(Nc2ccnc(C(C)(C)O)c2)c1 [Compound 22]
IC50 [2]: 54 nM

CC(C)(O)c1cc(Nc2cc(Oc3cc(C(F)(F)F)nn3CC3CC3)ccn2)ccn1 [Compound 20]
IC50 [2]: 48 nM

CC(C)(O)c1cc(Nc2cc(Oc3cc(C(F)(F)F)nn3C3CNC3)ccn2)ccn1 [Compound 24]
IC50 [2]: 223 nM

CC1(C)OC(=O)c2ccc(Nc3cc(Oc4cn(C5CC5)nc4C4CCOCC4)ccn3)cc21 [Compound 79]
IC50 [1]: 73000 nM
IC50 [2]: 29 nM

COc1ccc(Oc2ccnc(Nc3ccnc(C(C)(C)O)c3)c2)c(C)n1 [Compound 64]
IC50 [2]: 32 nM

C[C@@H]1CC(c2nn(C3CC3)cc2Oc2ccnc(Nc3ccnc(C(C)(C)O)c3)c2)C[C@H](C)O1 (some centres unmarked) [Compound 74]
IC50 [2]: 17 nM

NS(=O)(=O)c1ccc(Nc2cc(Oc3cn(C4CC4)nc3C3CCOCC3)ccn2)cc1 [Compound 73]
IC50 [2]: 14 nM

CC(C)(O)c1cc(Nc2cc(Oc3cc(C(F)(F)F)nn3-c3cccnc3)ccn2)ccn1 [Compound 37]
IC50 [2]: 283 nM

CC(C)(O)c1cc(Nc2cc(Oc3cn(C4CC4)nc3C(=O)Nc3ccccc3F)ccn2)ccn1 [Compound 80]
IC50 [2]: 57 nM

Cc1ccc(Oc2ccnc(Nc3ccc(C(C)(C)O)nc3)c2)c(C)n1 [Compound 62]
IC50 [2]: 29 nM

CC(C)(O)c1cc(Nc2cc(Oc3cc(C(F)(F)F)nn3-c3ccccc3Cl)ccn2)ccn1 [Compound 40]
IC50 [2]: 71 nM

CC(C)(O)c1cc(Nc2cc(Oc3ccc(C4CC4)nc3C3CCOCC3)ccn2)ccn1 [Compound 61]
IC50 [2]: 116 nM

CC(C)(C)c1nc(C2CC2)sc1Oc1ccnc(Nc2ccnc(C(C)(C)O)c2)c1 [Compound 75]
IC50 [2]: 6690 nM

CC(C)(O)c1cc(Nc2cc(Oc3cc(C(F)(F)F)nn3[C@@H]3C[C@H]4CC[C@@H](C3)O4)ccn2)ccn1 [Compound 49]
IC50 [2]: 32 nM

CC(C)(O)c1cc(Nc2cc(Oc3cc(C4CC4)nn3C3CCOCC3)ccn2)ccn1 [Compound 1]
IC50 [2]: 61 nM

NS(=O)(=O)c1ccc(Nc2cc(Oc3cc(C4CC4)nn3C3CCOCC3)ccn2)cc1 [Compound 14]
IC50 [1]: > 100000 nM
IC50 [2]: 37 nM

Cc1ccc(Oc2ccnc(Nc3ccnc(C(C)(C)O)c3)c2)c(C(F)(F)F)n1 [Compound 63]
IC50 [2]: 82 nM

C[C@@H]1C[C@@H](n2nc(C3CC3)cc2Oc2ccnc(Nc3ccnc(C(C)(C)O)c3)c2)C[C@H](C)O1 [Compound 18]
IC50 [2]: > 10000 nM

COc1cc(Oc2ccnc(Nc3ccnc(C(C)(C)O)c3)c2)n(C2CCOCC2)n1 [Compound 39]
IC50 [2]: 126 nM

CC(C)(O)c1cc(Nc2cc(Oc3cc(C(F)(F)F)nn3-c3ccc(F)cc3)ccn2)ccn1 [Compound 35]
IC50 [2]: 86 nM

CC(C)n1nc(C(F)(F)F)cc1Oc1ccnc(Nc2ccnc(C(C)(C)O)c2)c1 [Compound 25]
IC50 [2]: 66 nM

CC(C)(O)c1cc(Nc2cc(Oc3cc(C(F)(F)F)nn3C3CCNCC3)ccn2)ccn1 [Compound 26]
IC50 [2]: 88 nM

CC(C)(O)c1cc(Nc2cc(Oc3c(C4CCOCC4)nn4c3CCC4)ccn2)ccn1 [Compound 71]
IC50 [2]: 25 nM

CC1(C)OC(=O)c2ccc(Nc3cc(Oc4cc(C5CC5)nn4C4CCOCC4)ccn3)cc21 [Compound 47]
IC50 [2]: 103 nM

CC(C)(O)c1cc(Nc2cc(Sc3cn(C4CC4)nc3C3CCOCC3)ccn2)ccn1 [Compound 70]
IC50 [2]: 80 nM

CC(C)(O)c1cc(Nc2cc(Oc3cc(C(F)(F)F)nn3-c3ccc(Cl)cc3)ccn2)ccn1 [Compound 43]
IC50 [2]: 159 nM

COc1ccc(Oc2ccnc(Nc3ccnc(C(C)(C)O)c3)c2)c(C2CCOCC2)n1 [Compound 56]
IC50 [2]: 220 nM

CC(C)(O)c1cc(Nc2cc(Oc3cc(C(F)(F)F)nn3-c3ccccc3C#N)ccn2)ccn1 [Compound 51]
IC50 [2]: 55 nM

CC(C)(O)c1cc(Nc2cc(Oc3cn(C4CC4)nc3C3CCC(F)(F)CC3)ccn2)ccn1 [Compound 77]
IC50 [1]: 39000 nM

CC(C)(O)c1cc(Nc2cc(Oc3cc(C(F)(F)F)nn3C3CC3)ccn2)ccn1 [Compound 27]
IC50 [2]: 58 nM

C[C@@H]1C[C@H](n2nc(C(F)(F)F)cc2Oc2ccnc(Nc3ccnc(C(C)(C)O)c3)c2)C[C@H](C)O1 [Compound 31]
IC50 [2]: 1040 nM

CC(C)(O)c1cc(Nc2cc(Oc3ccc(C(F)(F)F)nc3C3CCOCC3)ccn2)ccn1 [Compound 60]
IC50 [2]: 50 nM

CC(C)(O)c1cc(Nc2cc(Oc3cc(C(F)(F)F)nn3[C@H]3C[C@H]4CC[C@@H](C3)O4)ccn2)ccn1 [Compound 50]
IC50 [2]: 113 nM

C[C@@H]1C[C@@H](n2nc(C(F)(F)F)cc2Oc2ccnc(Nc3ccnc(C(C)(C)O)c3)c2)C[C@H](C)O1 [Compound 30]
IC50 [2]: 89 nM

CC(C)(O)c1cc(Nc2cc(Oc3cc(C4CC4)nn3C(C)(C)C)ccn2)ccn1 [Compound 6]
IC50 [2]: 46 nM

Cc1cc(Oc2ccnc(Nc3ccnc(C(C)(C)O)c3)c2)n(C2CCOCC2)n1 [Compound 4]
IC50 [2]: 60 nM

CC(C)(O)c1cc(Nc2cc(Oc3cc(C(F)(F)F)nn3-c3cccc(Cl)c3)ccn2)ccn1 [Compound 36]
IC50 [2]: 56 nM

CC(C)(O)c1cc(Nc2cc(Oc3cc(C(F)(F)F)nn3-c3cncnc3)ccn2)ccn1 [Compound 42]
IC50 [2]: 263 nM
